Source: patent US11180488B2, “Isoxazole o-linked carbamoyl cyclohexyl acids as LPA antagonists” (BRISTOL-MYERS SQUIBB COMPANY, priority 2017, dated 2021)
Where two headings read alike, the source gives them in different places.

Biological target: T1, human LPA1 (Homo sapiens, UniProt Q92633)
T1 construct: expressed in transfected cells; host or cells: Chinese hamster ovary (CHO) cells
Assay: LPA1 functional antagonist assay (LPA-induced calcium flux)
Format: cell-based
Conditions: CHO cells overexpressing human LPA1, calcium flux induced by 10 nM LPA
Method: The effectiveness of compounds of the present invention as LPA1 inhibitors can be determined in an LPA1 functional antagonist assay as follows:
Chinese hamster ovary cells overexpressing human LPA1 were plated overnight (15,000 cells/well) in poly-D-lysine coated 384-well microplates (Greiner bio-one, Cat #781946) in DMEM/F12 medium (Gibco, Cat #11039). Following overnight culture, cells were loaded with calcium indicator dye (AAT Bioquest Inc, Cat #34601) for 30 minutes at 37° C. The cells were then equilibrated to room temperature for 30 minutes before the assay. Test compounds solubilized in DMSO were transferred to 384 well non-binding surface plates (Corning, Cat #3575) using the Labcyte Echo acoustic dispense and diluted with assay buffer [1×HBSS with calcium/magnesium (Gibco Cat #14025-092), 20 mM HEPES (Gibco Cat #15630-080) and 0.1% fatty acid free BSA (Sigma Cat #A9205)] to a final concentration of 0.5% DMSO. Diluted compounds were added to the cells by FDSS6000 (Hamamatsu) at final concentrations ranging from 0.08 nM to 5 μM. and were then incubated for 20 min at room temperature at which time LPA (Avanti Polar Lipids Cat #857130C) was added at final concentrations of 10 nM to stimulate the cells. […] IC50 values were determined by fitting data to a 4-parameter logistic equation (GraphPad Prism, San Diego Calif.).

T1 sequence (Q92633 whole entry): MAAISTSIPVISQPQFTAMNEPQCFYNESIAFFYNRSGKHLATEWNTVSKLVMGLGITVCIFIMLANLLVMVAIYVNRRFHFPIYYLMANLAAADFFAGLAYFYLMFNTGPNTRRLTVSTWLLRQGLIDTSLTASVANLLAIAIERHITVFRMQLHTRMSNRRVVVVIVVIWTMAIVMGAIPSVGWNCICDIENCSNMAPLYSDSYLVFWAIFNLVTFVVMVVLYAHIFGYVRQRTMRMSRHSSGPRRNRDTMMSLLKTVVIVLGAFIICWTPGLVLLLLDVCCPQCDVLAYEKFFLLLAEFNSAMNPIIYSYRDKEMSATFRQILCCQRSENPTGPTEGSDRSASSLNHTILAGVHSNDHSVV

IC50 (read-out: hLPA1 IC50) [nM]	IC50 (read-out: LPA1 IC50) [nM]	SMILES
26		Cc1noc(-c2ccc(O[C@@H]3CCC[C@@H](C(=O)O)C3)c(F)c2)c1COC(=O)N(C)C1CCCC1 [Example 38]
93		Cc1nc(-c2onc(C)c2COC(=O)N(C)C2(c3ccccc3)CC2)ccc1O[C@H]1CCC[C@H](C(=O)O)C1 [Example 16]
28		CCCCN(C)C(=O)OCc1c(C)noc1-c1ccc(O[C@H]2CCC[C@H](C(=O)O)C2)cc1 [Example 2, (1S,3S)-3-(4-(4-(((butyl(methyl)carbamoyl)oxy)methyl)-3-methylisoxazol-5-yl)phenoxy) cyclohexane-1-carboxylic Acid]
206		Cc1noc(-c2ccc(O[C@H]3CCC[C@H](C(=O)O)C3)cc2)c1COC(=O)N(C)CC1CC1 [Example 37]
60		CCCCN(C)C(=O)OC(C)c1c(C)noc1-c1ccc(O[C@H]2CCC[C@H](C(=O)O)C2)cc1 (some centres unmarked) [Example 52]
570		Cc1noc(-c2ccc(O[C@@H]3CCC[C@@H](CC(=O)O)C3)cc2)c1COC(=O)N(C)C1CCCC1 (racemic) [Example 47, (±)-(Trans)-2-(3-(4-(4-(((cyclopentyl(methyl)carbamoyl)oxy)methyl)-3-methylisoxazol-5-yl)phenoxy)cyclohexyl)acetic Acid]
424		Cc1noc(-c2ccc(O[C@H]3CCC[C@H](C(=O)O)C3)cc2)c1COC(=O)N(C)CCC1CCC1 (racemic) [Example 29]
370		Cc1noc(-c2ccc(O[C@H]3CCC[C@H](C(=O)O)C3)cc2)c1COC(=O)N(C)C1CCOC1 (some centres unmarked) [Example 31]
89		Cc1noc(-c2ccc(O[C@H]3CCC[C@](C)(C(=O)O)C3)cc2)c1COC(=O)N(C)C1CCCC1 (racemic) [Example 8, (±)-Trans-3-(4-(4-(((cyclopentyl(methyl)carbamoyl)oxy)methyl)-3-methylisoxazol-5-yl)phenoxy)-1-methylcyclohexanecarboxylic Acid]
15		CCCCN(C)C(=O)OCc1c(C)noc1-c1ccc(O[C@H]2CCC[C@H](C(=O)O)C2)c(C)n1 [Example 15]
214		Cc1noc(-c2ccc(O[C@@H]3CCC[C@@H](C(=O)O)C3)cc2)c1COC(=O)N(C)C(C)C1CCC1 (some centres unmarked) [Example 69]
31		Cc1nc(-c2onc(C)c2COC(=O)N(C)Cc2ccccc2)ccc1O[C@H]1CCC[C@H](C(=O)O)C1 [Example 18]
472		COCCN(C)C(=O)OCc1c(C)noc1-c1ccc(O[C@@H]2CCC[C@@H](C(=O)O)C2)cc1 [Example 72]
851		Cc1noc(-c2ccc(OC3CCCC(c4nnn[nH]4)C3)cc2)c1COC(=O)N(C)C1CCCC1 (mixture of isomers) [Example 75, (5-(4-((3-(1H-tetrazol-5-yl)cyclohexyl)oxy)phenyl)-3-methylisoxazol-4-yl) methyl cyclopentyl(methyl)carbamate]
25		[2H]C([2H])([2H])N(C(=O)OCc1c(C)noc1-c1ccc(O[C@H]2CCC[C@H](C(=O)O)C2)cn1)[C@H](C)C1CC1 [Example 66]
1210		Cc1noc(-c2ccc(O[C@@H]3CCC[C@@H](CC(=O)O)C3)cc2)c1COC(=O)N(C)CCC(C)C [Example 49]
6		Cc1onc(-c2ccc(O[C@H]3CCC[C@H](C(=O)O)C3)cc2)c1COC(=O)N(C)C1CCCC1 [Example 53, (1S,3S)-3-(4-(4-(((cyclopentyl(methyl)carbamoyl)oxy)methyl)-5-methylisoxazol-3-yl)phenoxy)cyclohexane-1-carboxylic Acid]
82		Cc1noc(-c2ccc(O[C@H]3CCC[C@H](C(=O)O)C3)cc2)c1COC(=O)N(C)CC1CCC1 [Example 34]
565		Cc1noc(-c2ccc(OC3CCCC(c4nnn[nH]4)C3)cc2)c1COC(=O)N(C)C1CCCC1 (single isomer, unassigned) [Example 78, (5-(4-((3-(1H-tetrazol-5-yl)cyclohexyl)oxy)phenyl)-3-methylisoxazol-4-yl)methyl cyclopentyl(methyl)carbamate]
2310		Cc1noc(-c2ccc(OC3CCCC(c4nnn[nH]4)C3)cc2)c1COC(=O)N(C)C1CCCC1 (single isomer, unassigned) [Example 76, (5-(4-((3-(1H-tetrazol-5-yl)cyclohexyl)oxy)phenyl)-3-methylisoxazol-4-yl)methyl cyclopentyl(methyl)carbamate]
10		CCCCCN(C)C(=O)OCc1c(C)noc1-c1ccc(O[C@H]2CCC[C@H](C(=O)O)C2)c(C)n1 [Example 19]
	8	Cc1noc(-c2ccc(O[C@H]3CCC[C@H](C(=O)O)C3)cn2)c1COC(=O)N(C)CC1CCC1 [Example 58]
102		Cc1noc(-c2ccc(O[C@H]3CCC[C@H](C(=O)O)C3)cc2)c1COC(=O)N(C)C1CCC1 [Example 36]
27		Cc1nc(-c2onc(C)c2COC(=O)N(C)C2CCCC2)ccc1O[C@H]1CCC[C@@H](C(=O)O)C1 [Example 39]

IC50 (read-out: hLPA1 IC50) [nM]	IC50 (read-out: LPA1 IC50) [nM]	SMILES
13		Cc1nc(-c2onc(C)c2COC(=O)N(C)CC2CCC2)ccc1O[C@H]1CCC[C@H](C(=O)O)C1 [Example 11]
11		Cc1nc(-c2onc(C)c2COC(=O)N(C)CCC2CC2)ccc1O[C@H]1CCC[C@H](C(=O)O)C1 [Example 10, (1S,3S)-3-((6-(4-((((2-Cyclopropylethyl)(methyl)carbamoyl)oxy)methyl)-3-methylisoxa-zol-5-yl)-2-methylpyridin-3-yl)oxy)cyclohexanecarboxylic Acid]
53		CCC(CC)N(C)C(=O)OCc1c(C)noc1-c1ccc(O[C@H]2CCC[C@H](C(=O)O)C2)c(C)n1 [Example 13]
	45	Cc1nc(-c2onc(C)c2COC(=O)N[C@H](C)c2ccccc2)ccc1O[C@H]1CCC[C@H](C(=O)O)C1 [Example 59]
	88	Cc1noc(-c2cnc(O[C@H]3CCC[C@H](C(=O)O)C3)cn2)c1COC(=O)N(C)C1CCCC1 [Example 55]
18		Cc1noc(-c2ccc(O[C@@H]3CCC[C@@](F)(C(=O)O)C3)cc2)c1COC(=O)N(C)C1CCCC1 (racemic) [Example 3]
175		Cc1noc(-c2ccc(O[C@H]3CCC[C@H](C(=O)O)C3)cc2)c1C(C)OC(=O)N(C)CCC(C)C (stereo partly drawn) [Example 50, (1S,3S)-3-(4-(4-(1-((isopentyl(methyl)carbamoyl)oxy)ethyl)-3-methyl-isoxazol-5-yl)phenoxy)cyclohexane-1-carboxylic Acid]
	166	Cc1nc(-c2onc(C)c2COC(=O)NC(C)(C)C)ccc1O[C@H]1CCC[C@H](C(=O)O)C1 [Example 60]
48		Cc1noc(-c2ccc(O[C@@H]3CCC[C@@H](C(=O)O)C3)cc2)c1COC(=O)N(C)C(C)C1CC1 (some centres unmarked) [Example 68]
103		Cc1noc(-c2ccc(O[C@@H]3CCC[C@@](F)(C(=O)O)C3)cc2)c1COC(=O)N(C)C1CCCC1 [Example 6]
23		Cc1noc(-c2ccc(O[C@H]3CCC[C@H](C(=O)O)C3)cn2)c1COC(=O)N(C)C1CC(C)(C)C1 [Example 70]
133		Cc1noc(-c2ccc(OC3CCCC(F)(C(=O)O)C3)cc2)c1COC(=O)N(C)C1CCCC1 (single isomer, unassigned) [Example 5]
	50	Cc1nc(-c2onc(C)c2COC(=O)N(C)C(C)(C)C)ccc1O[C@H]1CCC[C@H](C(=O)O)C1 [Example 63]
32		Cc1noc(-c2ccc(O[C@H]3CCC[C@H](C(=O)O)C3)cc2)c1C(C)OC(=O)N(C)[C@H](C)C1CC1 (some centres unmarked) [Example 51]
5.2		Cc1noc(-c2ccc(O[C@H]3CCC[C@H](C(=O)O)C3)cn2)c1COC(=O)N(C)CCC(C)C [Example 45]
1210		Cc1noc(-c2ccc(O[C@H]3CCC[C@H](C(N)=O)C3)cc2)c1COC(=O)N(C)C1CCCC1 (racemic) [Example 73, (±)-Trans-(5-(4-((3-carbamoylcyclohexyl)oxy)phenyl)-3-methylisoxazol-4-yl)methyl cyclopentyl(methyl)carbamate]
85		Cc1noc(-c2cnc(O[C@H]3CCC[C@H](C(=O)O)C3)cn2)c1COC(=O)N(C)C(C)C1CC1 (mixture of isomers) [Example 9, (±)-Trans-3-((5-(4-((((1-cyclopropylethyl)(methyl)carbamoyl)oxy)methyl)-3-methyl-isoxazol-5-yl)pyrazin-2-yl)oxy)cyclohexanecarboxylic Acid]
15		Cc1noc(-c2ccc(O[C@@H]3CCC[C@@](F)(C(=O)O)C3)cc2)c1COC(=O)N(C)C1CCCC1 (single isomer, unassigned) [Example 4]
	19	Cc1nc(-c2onc(C)c2COC(=O)N(C)Cc2cccc(F)c2)ccc1O[C@H]1CCC[C@H](C(=O)O)C1 [Example 61]
1490		Cc1noc(-c2ccc(O[C@H]3CCC[C@@H](CC(=O)O)C3)cc2)c1COC(=O)N(C)C1CCCC1 [Example 48]
14		Cc1nc(-c2onc(C)c2COC(=O)N(C)CC2CC2)ccc1O[C@H]1CCC[C@H](C(=O)O)C1 [Example 14]
1650		Cc1noc(-c2ccc(O[C@H]3CCC[C@H](C(=O)O)C3)cn2)c1COC(=O)N[C@H](C)C1CC1 [Example 40]
15		Cc1noc(-c2ccc(O[C@H]3CCC[C@H](C(=O)O)C3)cn2)c1COC(=O)N(C)CCC1CC1 [Example 43]
